Article PMC9045296, “Development of Antifungal Peptides against Cryptococcus neoformans; Leveraging Knowledge about the cdc50Δ Mutant Susceptibility for Lead Compound Development” (Microbiology Spectrum, 2022)
≈ marks a conversion by molar mass, not a printed value. Where two headings read alike, the source gives them in different places. Residues, ends and D or L forms follow the SMILES beside them. *: point of attachment. Myristoyl = CCCCCCCCCCCCCC(=O)*

What was measured:
[1] = tested on: C. neoformans wild-type strain H99; test: microbe, parasite or virus in culture; assay type: cell-based, Cryptococcus neoformans; conditions: for MIC: Cryptococcus neoformans
Method: (§1) Our assays followed standard CLSI protocol for broth microdilution assays using yeasts ([32]). Microbes were passaged in YPD media at 37°C with mixing for 2 days before harvesting with an inoculation loop to prepare monocultures on Sabouraud Dextrose Agar (SDA) plates. Monocultures on SDA plates were incubated for 2 days at 37°C before harvesting cells for microdilution assays. RPMI media (100 μL) was charged to each of the 96 wells in a 96-well plate, with an additional 100 μL in the first column. Peptide-DMSO solution (4 μL) at 12.8 mg/mL was charged to each of the wells in the first column. The 100 μL was serially diluted by a factor of 2 from the first column to the 11th column. Microbe inoculant was then prepared. An inoculation loop was used to transfer 1–3 colonies of cells to 1 mL phosphate buffer solution (PBS). The PBS and microbe solution was made uniform by vortex mixing. Cell concentration was computed by comparing the absorbance at 530 nm to 1x McFarland standard solution and multiplying the resulting ratio by 10^7 cell/mL conversion factor. Plate inoculant was prepared by diluting the PBS microbe solution to 5000 cell/mL, in RPMI media. A 100 μL aliquot of cells was transferred to each of the wells on the plate other than column 11 for the no growth control. The operating volume was 200 μL, with 500 CFU per well for a final concentration of 2.5*10^3 cells/mL. Inoculated plates were incubated for 48 h at 37°C and read at 24 and 48 h ([33]).

[2] = tested on: C. neoformans H99; assay type: cell-based, Cryptococcus neoformans; conditions: for FIC H99 Caspofungin: Table S1, concentration of caspofungin in combination with the peptide; for FIC H99 Peptide: Table S1, concentration of peptide in combination with caspofungin
Method: (§2) Again, 200 μL was the operating volume, 500CFU per well, 2.5*10^3 cell/mL. Plates were incubated for 48 h at 37°C and read thereafter. The Fractional Inhibitory Concentration Index were calculated in Equation 1: FICIndex=FICA/MICA+FICB/MICB

[3] = tested on: ΔCDC50 mutant strain; assay type: cell-based, Cryptococcus neoformans; conditions: for FIC ΔCDC50 Caspofungin: Table S1, concentration of caspofungin in combination with the peptide; for FIC ΔCDC50 Peptide: Table S1, concentration of peptide in combination with caspofungin
Method: as §2

[4] = tested on: human red blood cells (RBCs); test: Hemolysis assay; assay type: cell-based; conditions: human RBC, 1 h at 37°C, relative to Triton X-100
Method: Operating conditions were 100 μL and 2.5*10^8cell/mL. […] The plate was incubated at 37°C for 1 h. […] The scans were run in triplicate.

[5] = tested on: exofacial PS on C. neoformans cells; test: AF350-annexin V flow cytometry assay; assay type: cell-based, Cryptococcus neoformans; conditions: 0.128 mg/mL peptide, 5*10^6 cell/mL, 20 min at 25°C, triplicate; control 0.2 ± 0.1%
Excerpt: We sought to determine whether the activities of the peptides were related to the lipid-flipping activity of the P4-ATPase. […] The intensity of the AF350-annexin V signal corresponds to concentration of PS on the exofacial side of the membrane. The propidium iodine signal corresponds to cell viability. […] Single cells were first selected and gated based on morphology to ensure homogeneity among the cell population (4A, 4B). We examined cells with low propidium iodine intensity (PI-A < 9 RU) and high AF350-annexin V intensity (Annexin V-A > 9 RU) (4C, 4D). Under these gating parameters there should be, respectively, low nonspecific cell death and high exofacial PS.
Stock microbes were defrosted from the –80°C freezer and were passed twice for 48 h each in YPD media. The YPD media was removed by spinning down and the supernatant was decanted. Pelletized cells were resuspended in 1 mL PBS media and washed for 5 min with incubation at 25°C and 250 RPM. Washed cells were spun down again and suspended in 1 mL of PBS solution. cells were diluted 20-fold into 1 mL fungal working solution in an eppendorf. Cell concentration was quantified via comparison to 1X McFarlain’s standard on a plate reader using the absorbance value at 530 nm. An aliquot of 1*10^6 cells in 100 μL was created (1*10^7cell/mL). A 100 μL aliquot of peptide working solution at 0.256 mg/mL was added to the cell suspension for final operating parameters of 200 μL, 0.128 mg/mL peptide, and 5*10^6cell/mL. The cells were incubated for 20 min at 25°C and 250RPM. Baseline and experimental samples were prepared in triplicate. Cells were stained using an operating concentration of 0.001 mg/mL Propidium Iodine (PI) and a 40-fold dilution of Alexa Fluor 350 labeled annexin V as per manufactures instructions. After staining the cells, samples were spun down and supernatant decanted. Cells were then fixed in 4% formaldehyde for 5 min. Fixed cells were spun down and supernatant decanted and resuspended in 400 μL 1% formaldehyde for flowcytometry. Samples were collected at a slow flow rate on a MACS Quant 10 device (Miltenyi Biotech, Auburn, CA) with 50,000 events collected per injection.

[6] = tested on: C. neoformans H99; test: SDS and plate spotting assay; assay type: cell-based, Cryptococcus neoformans; conditions: H99 pretreated with 128 μg/mL peptide for 1 h at 30°C; compared to untreated or DMSO controls
Method: Briefly, cultures of C. neoformans were grown in YPD and then spotted on YPD plates containing 0.03% SDS.
To test cell integrity, C. neoformans strains from 3 mL YPD overnight cultures were washed, resuspended, and serially diluted (1:10) in dH2O and spotted (5 μl) on YPD agar plates or YPD agar plates containing 0.03% SDS and incubated for 2 days at 30°C and 37°C. […] Of each strain, yeast cells were inoculated into liquid YPD with 128 μg/mL or 64 μg/mL peptide and co-incubated for 1h at 30°C. And then, 10-fold serial dilutions were prepared, and 5 μl of each was spotted on YPD and YPD agar plates containing 0.03% SDS. The results were photographed after a 48 h of incubation. Their growth was determined by serial dilutions and the fungal colonies were assessed by CFU numbers.

[7] = tested on: cdc50Δ mutant strain; assay type: cell-based, Cryptococcus neoformans; conditions: Table S1, drug alone
Method: as §1

[8] = tested on: C. neoformans wild-type strain H99; conditions: cited from earlier work
Excerpt: (§3) Recently, mutation studies discovered an essential role of Cryptococcus lipid flippase in echinocandin resistance ([6]). The lipid flippase is composed of the core P4 type ATPase (P4-ATPase) and a regulatory subunit Cdc50 ([7]). […] This loop region of Cdc50 has been reported in other organisms to bind to the P4-ATPase to regulate flippase activity ([8]).

[9] = tested on: cdc50Δ mutant strain; conditions: cited from earlier work
Excerpt: as §3

[10] = Table S1, drug alone, wild type H99

Structure (SMILES) | MIC H99 [1, 10] [µg/mL] | MIC (FIC) of caspofungin in the presence of the AW9-Ma peptide ([2]; C. neoformans wild type, combination with caspofungin) [µg/mL] | FIC H99 Caspofungin [2] [µg/mL] | FIC H99 Peptide [2] [µg/mL] | FIC ΔCDC50 Caspofungin [3] [µg/mL] | FIC ΔCDC50 Peptide [3] [µg/mL] | hemolysis at the concentrations needed for synergy [4] | hemolytic activity (fractional lysis) ([4]; varying concentrations, absorbance 410 nm) | percentage of cells with low propidium iodine (PI-A < 9 RU) and high AF350-annexin V intensity (Annexin V-A > 9 RU) [5] | growth in terms of CFU on agar medium with 0.03% SDS [6] | MIC ([1]; Table S1, drug alone, wild type H99, read-out: MIC H99) [µg/mL] | MIC ([1]; drug alone, H99 wild type, CLSI broth microdilution, RPMI, 2.5*10^3 cells/mL, 37°C, read at 24 and 48 h, read-out: MIC) [µg/mL] | MIC ΔCDC50 [7] [µg/mL] | MIC value of caspofungin [8] [µg/mL] | MIC value of caspofungin [9] [µg/mL] | MIC of caspofungin in the presence of 0.5 μg/mL peptide ([2]; H99, checkerboard, caspofungin alone 16 μg/mL) [µg/mL]
CCCCCCCCCCCCCC(=O)N[C@@H](Cc1c[nH]c2ccccc12)C(=O)NCC(=O)NCC(=O)N[C@H](C(=O)N[C@@H](CCCCN)C(=O)N[C@@H](CCCCN)C(=O)N[C@@H](CC(N)=O)C(=O)N[C@@H](Cc1ccc(O)cc1)C(=O)N[C@@H](C)C(=O)O)[C@@H](C)CC [AW9-Ma] (Myristoyl-WGGIKKNYA-OH) | 64 (≈ 51.3 µM) | 4 | 4 | 16 | 0.125 | 0.125 | low amounts of hemolysis | concentrate-dependent minimal amount of hemolysis | 67.6% ± 2.3 | significantly reduced growth | – | – | – | – | – | –
CC[C@H](C)C[C@H](C)CCCCCCCCC(=O)N[C@H]1C[C@@H](O)[C@@H](NCCN)NC(=O)[C@@H]2[C@@H](O)CCN2C(=O)[C@H]([C@H](O)CCN)NC(=O)[C@H]([C@H](O)[C@@H](O)c2ccc(O)cc2)NC(=O)[C@@H]2C[C@@H](O)CN2C(=O)[C@H]([C@@H](C)O)NC1=O [caspofungin, reference compound] | – | – | – | – | – | – | – | – | – | – | 16 (≈ 14.6 µM) | 16 (≈ 14.6 µM) | 4 (≈ 3.66 µM) | 16 | 4 | –
CCCCCCCCCCCCCC(=O)N[C@@H](CO)C(=O)N[C@@H](CCC(=O)O)C(=O)N[C@@H](CO)C(=O)NCC(=O)N[C@H](C(=O)N[C@@H](C)C(=O)N[C@@H](Cc1c[nH]c2ccccc12)C(=O)NCC(=O)NCC(=O)N[C@H](C(=O)N[C@@H](CCCCN)C(=O)N[C@@H](CCCCN)C(=O)N[C@@H](CC(N)=O)C(=O)N[C@@H](Cc1ccc(O)cc1)C(=O)N[C@@H](C)C(=O)O)[C@@H](C)CC)[C@@H](C)CC [AS15-Ma] (Myristoyl-SESGIAWGGIKKNYA-OH) | > 128 | – | 8 | 0.5 | 0.25 | 0.25 | – | – | 12.1 ± 2.0% | – | – | – | 8 (≈ 4.47 µM) | – | – | 8
